In US20080213183A1, “Free or Liposomal Gemcitabine Alone or in Combination with Free or Liposomal Idarubicin” (priority 2004, published 2008):
pIC50: −log10 of the molar value. Structures can show the parent of a compound that is named as a salt. Where two headings read alike, the source gives them in different places. Marks after values point to notes of the source that are not given here.

Columns and labels:
[1] = test system: P388 tumors
Procedure: For in vivo testing of antitumor activity was evaluated in P388 lymphocytic leukemia model.
Treatments commenced 24 hours post tumor cell inoculation. Treatment groups consisted of saline (control) and 0.5, 1, 2 and 3 mg/kg doses of free or liposomal idarubicin administered as a single i.v. bolus injection and between 100 to 500 mg/kg gemcitabine and 1 to 5 mg/kg liposomal gemcitabine (selected on the basis of dose range finding studies). Fixed dose ratios for combination treatments were defined on the basis of 0.66 MTD when used as a single agent. […] Median survival and percent weight loss was determined for each treatment.
All data values are reported as mean±standard deviation (S.D.). A standard one-way analysis of variance (ANOVA) was used to determine statistically significant differences of the means. For multiple comparisons, post-hoc analysis using the Tukey-Kramer test. Survival curves were computed using the Kaplan-Meier method. […] Treatment groups were subsequently analyzed using SPSS statistics software (SPSS Inc., Chicago, Ill., USA) and compared using a two sample log-rank test. P<0.05 was considered significant for all statistics tests.

[2] = test system: P388 lymphocytic leukemia cells; experiment: MTT cytotoxicity assay with median effects (Chou and Talalay) analysis; assay type: cell-based, murine; details: for pIC50 / IC90: Mus musculus; for pIC50: P388, 72 h, read-out: IC50 (concentration required to achieve 50% cell kill); for IC90: P388, read-out: IC90 drug concentration (90% cell kill)
Procedure: For in vitro analysis, P388 wild type and doxorubicin resistant (ADR) cells were obtained from the National Cancer Institute tissue repository (Bethesda, Md., USA) and were propagated in vivo. In brief, one vial of frozen ascites was removed from the nitrogen tank and thawed at 37° C. and cells were injected i.p. into female BDF-1 mice (6-8 weeks old, 20-22 g, Charles River Laboratories, St. Constant, QC, Canada). Transfer mice were euthanized and a peritoneal lavage was performed. With a 1 cc syringe with 20 gauge needle, 0.5-1.0 ml of peritoneal fluid was removed and aliquotted into a 15 ml falcon tube containing 5 ml of Hank's Balanced Salt Solution (HBSS, no calcium or magnesium). 0.5 ml aliquot was transferred into another 15 ml conical sterile tube containing 5 ml HBSS. The cells were exposed to plastic culture wear (for adherence of monocytes) and Ficoll-Paque density centrifugation (red blood cell removal). […] For each passage, 2 female BDF-1 mice were injected with 1×10^6 cells in 0.5 ml (2×10^6 cells/ml) of P388 cell suspension intraperitoneally. This was repeated every 6-8 days to a maximum of 20 passages. Cells adequate for animal experiments were used between the 3rd-20th passage. For tissue culture experiments such as MTT cytotoxicity assays, P388 cells were obtained following peritoneal lavage and treatment to remove red blood cells and peritoneal macrophages. […] In order to assess cytotoxicity the MTT (3-(4,5-dimethylthiazol-2-yl)-2,5-diphenyl tetrazolium bromide) assay was utilized. […] The wells in the perimeter of the 96 well microtiter plates contained 0.2 ml sterile water. […] Control wells consisted of media only (200 μl/well), or cells and media (no treatment). There were 6 replicates (per plate) for all control and treatment groups). […] The media was aspirated off and 0.15 ml DMSO was added per well and resuspended on a plate shaker (5-10 min). […] The cytotoxicity upon drug exposure was quantified by expressing the percent cell viability for each treatment relative to untreated control cells (% control). […] This was further analyzed by the median effects principle by Chou and Talalay, cited above. The method by Chou and Talalay was used to distinguish between synergy, antagonism and additive effects of combined drug treatments from in vitro MTT cytotoxicity assays. This method, now provided in a software package (Calculsyn; Biosoft, Cambridge, UK), derives a median effects equation (1) to correlate drug dose and effect. Fixed ratio combinations of idarubicin and gemcitabine were initially selected on the basis of IC50 of each drug. […] Data were reported as mean±S.D. from three separate experiments, performed in triplicate.

[3] = Plasma elimination of free and liposomal gemcitabine; assay type: in vivo, Balb/c mice; details: 33 μmole gemcitabine/kg i.v.
Procedure: Pharmacokinetic Analysis: Balb/c mice breeders, 20-22 g, were purchased from Charles River Laboratories (St. Constant, QC, Canada) and bred in-house. Mice were housed in micro-isolator cages and given free access to food and water. All animal studies were conducted according to procedures approved by the University of British Columbia's Animal Care Committee and in accordance with the current guidelines established by the Canadian Council of Animal Care.
The plasma elimination of idarubicin and gemcitabine containing tracer quantities of 3[H]-gemcitabine was assessed. Mice were injected with 33 μmoles/kg drug administered intravenously into the lateral tail vein of Balb/c mice. At various time points up to 4 hours post drug administration, blood was collected by tail nick (collected in microfuge tubes) or cardiac puncture (collected in liquid EDTA coated tubes), centrifuged at 1000 g to isolate the plasma fraction. The plasma was placed in a separate microfuge tube and vortexed to ensure a homogenous distribution.
The tail nick procedure for obtaining blood samples was used to minimize the number of mice sacrificed. In this way, three blood samples could be obtained from a single mouse within a 24 hour time interval. In brief, the lateral tail vein of mice was nicked with a small sharp blade. A 25 μl glass pipette, pre-washed with EDTA, was used to withdraw blood. The blood was expelled into a microfuge tube containing 200 μl of 5% (wt/vol) EDTA and thoroughly mixed. Blood/EDTA samples were centrifuged for 10 minutes at 1000 g. The supernatant was transferred to a 1.5 ml microfuge tube. 250 μl Hank's balanced salt solution (HBSS) was added to the pellet, resuspended and centrifuged for 10 minutes at 1000 g. The supernatants were mixed together. Assuming a 48% hematocrit for a 20 gram Balb/c mice, approximately 13 μl plasma was obtained from a 25 μl blood sample. From the recovered plasma samples, aliquots were used to measure drug (and or lipid) concentrations.
The plasma elimination of liposomal drugs containing doxorubicin, daunorubicin, idarubicin, or gemcitabine samples administered intravenously into the lateral tail vein of Balb/c female mice was assessed. Mice were injected with 33 μmole/kg drug and 165 μmole/kg lipid. For liposomal gemcitabine samples, mice were injected with 33 μmole/kg gemcitabine at an approximate 0.1 drug-to-lipid mole ratio). At various time points post drug administration, blood was collected by tail nick or cardiac puncture. Plasma lipid and 3[H]-gemcitabine were quantified by liquid scintillation counting. Anthracyclines were extracted from plasma with a partitioning assay, followed by fluorescence spectrometer detection.
The plasma elimination data was modeled using WinNonlin (version 1.5) pharmacokinetic software (Pharsight Corporation, Mountain View, Calif., USA) to calculate pharmacokinetic parameters. […] The mean plasma AUC for a defined time interval was determined from the concentration-time curves and subsequent calculation by the standard trapezoidal rule.
Liposome mediated increases in gemcitabine blood residence time were also evaluated as follows: Free and liposomal gemcitabine formulations were administered to female Balb/c mice at a dose of 33 μmole gemcitabine/kg (9.9 mg/kg) and 165 μmole total lipid/kg.

[4] = test system: non small cell lung cancer; details: cited from earlier work
[5] = Dose range finding, maximum tolerable dose; assay type: in vivo; details: no significant toxicity for 30 days
Procedure: Dose range finding studies of free and liposomal idarubicin and/or gemcitabine were performed in non-tumor bearing female BDF-1 mice. Mice were weighed daily and monitored for signs of stress or toxicity (e.g., lethargy, scruffy coat, ataxia).

[6] = at IC90, GEM/IDA 1:1 fixed molar ratio
[7] = at IC90, GEM/IDA 1:10 fixed molar ratio
[8] = female, Balb/c, mouse, iv, 33 μmole/kg, plasma

CC(=O)[C@]1(O)Cc2c(O)c3c(c(O)c2[C@@H](O[C@H]2C[C@H](N)[C@H](O)[C@H](C)O2)C1)C(=O)c1ccccc1C3=O [IDA, idarubicin hydrochloride]
% ILS ([1]; IDA 0.5 mg/kg): 13%
% Weight Change, day 5 ([1]; IDA 0.5 mg/kg): 13.6%
Cell Kill ([1]; IDA 0.5 mg/kg): 0.6 LOG10
MST ([1]; IDA 0.5 mg/kg): 9 days
Survivors ([1]; IDA 0.5 mg/kg): 0/12
% ILS ([1]; IDA 1 mg/kg): 50%
% Weight Change, day 5 ([1]; IDA 1 mg/kg): 2.1%
Cell Kill ([1]; IDA 1 mg/kg): 2.3 LOG10
MST ([1]; IDA 1 mg/kg): 12 days
Survivors ([1]; IDA 1 mg/kg): 0/12
% ILS ([1]; IDA 2 mg/kg): 113%
% Weight Change, day 5 ([1]; IDA 2 mg/kg): −1.4%
Cell Kill ([1]; IDA 2 mg/kg): 5.1 LOG10
MST ([1]; IDA 2 mg/kg): 17 days
Survivors ([1]; IDA 2 mg/kg): 1/12
pIC50 [2]: 8.74
IC90 [2]: 5.7 nM
dose reduction index (DRI) [2, 6]: 11.8
dose reduction index (DRI) [2, 7]: 8.5
fold reduction in concentration required ([2]; at IC90, GEM/IDA 10:1 fixed ratio): 180 fold

Nc1ccn([C@@H]2O[C@H](CO)[C@@H](O)C2(F)F)c(=O)n1 [GEM, gemcitabine hydrochloride]
AUC0-t ([3]; Tlast 4 hours): 0.1^b μmole · h · ml^−1
AUMC ([3]; plasma): 0.3 μmole · h^2 · ml^−1
MRT last [3, 8]: 3.1 h
clearance [3, 8]: 0.102 mL/min
half-life [3, 8]: 2.1 h
% ILS ([1]; GEM 100 mg/kg): 63%
% Weight Change, day 5 ([1]; GEM 100 mg/kg): 0.4%
Cell Kill ([1]; GEM 100 mg/kg): 2.9 LOG10
MST ([1]; GEM 100 mg/kg): 13 days
Survivors ([1]; GEM 100 mg/kg): 0/6
% ILS ([1]; GEM 200 mg/kg): 81%
% Weight Change, day 5 ([1]; GEM 200 mg/kg): 3.0%
Cell Kill ([1]; GEM 200 mg/kg): 3.7 LOG10
MST ([1]; GEM 200 mg/kg): 14.5 days
Survivors ([1]; GEM 200 mg/kg): 0/6
% ILS ([1]; GEM 300 mg/kg): 81%
% Weight Change, day 5 ([1]; GEM 300 mg/kg): 2.3%
Cell Kill ([1]; GEM 300 mg/kg): 3.7 LOG10
MST ([1]; GEM 300 mg/kg): 14.5 days
Survivors ([1]; GEM 300 mg/kg): 0/6
% Weight Change, day 5 ([1]; GEM 400 mg/kg): 1.8%
Cell Kill ([1]; GEM 400 mg/kg): 4.0 LOG10
MST ([1]; GEM 400 mg/kg): 15 days
Survivors ([1]; GEM 400 mg/kg): 0/6
% ILS ([1]; GEM 400 mg/kg, hydrochloride): 88%
% ILS ([1]; GEM 400 mg/kg, listed as free gemcitabine, hydrochloride): 87.5%
% ILS ([1]; GEM 500 mg/kg): 75%
% Weight Change, day 5 ([1]; GEM 500 mg/kg): 0.0%
Cell Kill ([1]; GEM 500 mg/kg): 3.4 LOG10
MST ([1]; GEM 500 mg/kg): 14 days
Survivors ([1]; GEM 500 mg/kg): 0/10
maximum therapeutic dose ([1]; P388 model, single agent): 400 mg/kg
overall response rate ([4]; 800-1250 mg/m2, in combination with cisplatin): 50%
overall response rate ([4]; 800-1250 mg/m2, single agent): 20%
median survival ([4]; in combination with cisplatin): greater than 1 year
maximum tolerable dose [5]: 500 mg/kg
pIC50 [2]: 9.59
IC90 [2]: 0.9 nM
dose reduction index (DRI) [2, 6]: 1.8
dose reduction index (DRI) [2, 7]: 14
fold more cytotoxic than idarubicin ([2]; from IC50): approximately 10 fold
